Data: patent publication US5179109A (priority 1988, dated 1993)
Entries after “also recorded” stand apart in the source; their conditions may differ. Where two headings read alike, the source gives them in different places.

Columns and labels:
[1] = molecular target: cerebral cholinergic muscarinic receptor; assay type: binding, rat; conditions: for IC50: rat brain homogenate, read-out: ^3 HQNB IC50; for ^3 HQNB/^3 HTCP: ratio of IC50
[2] = molecular target: T1, receptor of the opiates (Rattus norvegicus, UniProt P33535); assay: Competition test with ^3 H-DHM for the receptor of the opiates; assay type: binding
T1 construct: variable concentrations of the tested compound and a rat brain homogenate; from tissue; host or cells: rat brain homogenate
Procedure: In this test, a fixed concentration of ^3 H-DHM labelled morphine was incubated in the presence of variable concentrations of the tested compound and a rat brain homogenate. The concentration of the compound preventing the fixing of 50% of ^3 H-DHM (IC50) is a measure of the affinity of the compound for the receptor of the opiates. The latter also gives the results obtained with PCP and TCP, as well as the ratios H^3 DA/^3 H-TCP, ^3 HQNB/^3 H-TCP and ^3 HDHM/^3 HTCP obtained with the different tested compounds.

[3] = test system: cortical and hippocampal neurons; assay: In vitro neuron culture survival after 2 months, count of neurons (Example 23); assay type: cell-based, rat; conditions: for number of neurons which survived after 2 months culturing: single dose at start of third week, TCP 2.5 and 20, compound 9 and MK801 2.5 and 5 μmole/l, control 50 neurons/mm^2
Procedure: This example also illustrates the effect of the arylcyclohexylamines according to the invention on the in vitro neuron culture survival. As in example 21, cortical and hippocampal neuron cultures are prepared. At the start of the third culturing week, the cells are treated with a single dose of the compound to be tested and culturing is continued for two months. At the end of this period, the cells which were fixed and dyed to reveal the specific enolase of the neurons are subject to counts in order to determine the quantity of cells per surface unit.
The results obtained are given in FIG. 1, which is a histogram indicating the number of cells/mm^2 which survived after 2 months culturing.
The results are given for the control, i.e. for untreated cultures, cultures treated with 2.5 and 20 μmole/l of TCP, cultures treated by compound no. 9 at concentrations of 2.5 and 5 μmole/l and cultures treated by compound MK801 at concentrations of 2.5 and 5 μmole/l. Compound MK801, which is known to have a neuroprotection activity, is (+)-methyl-5-dihydro-10,11(5H)dibenzo(A,D) cyclohepteneimine-5,10 of formula: [drawing 38] From FIG. 1 it can be seen that the control cultures, after surviving for 2 months, on average contain 50 neurons/mm^2. The treated cultures, no matter what the compound and dose used, contain more than 500 neurons/mm^2.

[4] = test system: Purkinje cells; assay: Cerebral aging in mice, histology of the cerebellum; assay type: in vivo; conditions: cerebellum and hippocampus, compared with TCP
Procedure: This example illustrates the effect of arylcyclohexylamines on cerebral aging. No matter what the cause of the cerebral aging (vascular or degenerative), it leads to a neuronal loss at the cerebral cortex, the hippocampas and to a lesser extent the cerebellum. This cellular loss can be quantified by simple histological methods and evaluated on a larger scale by means of semi-automatic image analysis methods.
In this example 6 mice aged 23 months by intraperitonealy injecting 3 of them with 5 mg/kg of TCP in the physiological solute at the 23rd, 24th and 25th months and 3 other mice were intraperitonealy injected with the physiological solute only. At the 26th month, all the mice were sacrificed by intracardial perfusion of a 5% glutaraldehyde solution, the brains were cut up with the vibratone and the sections dyed by the NISSL method.
The results obtained are given in FIGS. 2 to 5, which are sections of the brain and the cerebellum of the treated mice and the untreated control mice.

[5] = test system: Swiss mice; assay: Simple rotary bar test (dose at which 50% of the animals drop); assay type: in vivo; conditions: for ED50: Mus musculus, sc
Procedure: In this example, the properties of compounds 1 to 5 and 8 to 11 are tested on Swiss mice.
Different doses of the compounds to be tested are administered subcutaneously to the mice and the latter are then placed in batches of 10 on a rotary bar, being separated from one another by separating disks. This bar is made from scraped wood, has a diameter of 3 cm and is moved horizontally with a uniform circular movement about its axis at a speed of 10 rpm.
Determination takes place of the ED50, which is the dose at which 50% of the animals drop, the dose being expressed in mg/kg.

[6] = test system: synaptosomal striatal (^3 H)DA capture; assay: Inhibition test of the synaptosomal striatal sample (capture) of (^3 H)DA; assay type: biochemical, Wistar rats; conditions: for IC50: rat striatal synaptosomes, 5 nM (^3 H)DA, 5 min at 30° C., pH 7.4, read-out: ^3 HDA IC50; for ^3 HDA/^3 H-TCP: ratio of IC50
Procedure: This test is carried out according to the method used by Vignon and Lazdunski operating in the following way. Wistar rats weighing 200 to 250 g are killed by cervical dislocation. Their brains are rapidly removed and the striae dissected on ice. The striae are then homogenized with a Teflon glass Potter homogenizer in 50 volumes of tris HCl 10 mM buffer containing 0.32M of sucrose at pH 7.4 and they are centrifuged at 1000 g for 10 min. The supernatants are further centrifuged at 10000 g for 20 min. The resulting deposits P2 containing the crude synaptosomes are used without supplementary purification.
The synaptosomes are balanced with the compound to be tested for 30 min at 30° C. in the Ringer medium (mM: 140 NaCl, 5 KCl, 2.6 CaCl2, 1.3 MgSO4, 10 tris-HCl, pH=7.4)+200 μM of pargyline. This is followed by the addition of (^3 H)DA labelled dopamine at a final concentration of 5 nM for 5 min at 30° C. and sampling is interrupted by filtration of the incubate (150 μl) on GF/B filters. The non-specific sample is measured at 4° C. in parallel incubations and is deducted from the total sample at 30° C. The IC50 is the compound concentration preventing 50% of the specific capture compared with the control in the absence of an inhibitor.

[7] = test system: site of PCP; assay: Affinity for the PCP site, competition with (^3 H)PCP on rat brain homogenates; assay type: binding; conditions: rat brain homogenate, pH 7.7, 25° C., 1 nmole tritiated ligand
[8] = test system: site of TCP; assay: Affinity for the TCP site, competition with (^3 H)TCP on rat brain homogenates; assay type: binding; conditions: rat brain homogenate, pH 7.7, 25° C., 1 nmole tritiated ligand; read-out: ^3 HTCP IC50
[9] = test system: cortical and hippocampal neurons; assay: Protection of cortical and hippocampal neuron cultures against glutamate; assay type: cell-based, rat
Procedure: (§1) This example illustrates the effect of the arylcyclohexylamines according to the invention on in vitro cultures of rat brain cells as a neuroprotector against acute attacks caused by the presence of glutamate.
(§2) Cortical and hippocampal neuron cultures were prepared from the fetuses of rats aged from 17 to 18 days. The hemispheres or hippocampi are dissected and immersed in a buffer containing EDTA (Versene) for 10 min. The tissues are then mechanically dissociated in a saline PUCK solution free from calcium and magnesium and centrifuged at 70 g for 10 min. The centrifuging deposit is resuspended in a culture medium constituted by 60% of the minimum essential Eagle medium (MEM), 25% of a saline Hank solution, 5% of human serum, 5% of calf foetus serum, 5% of embryo extract and which are complemented with 6% glucose. The cells are introduced at a density of 10^6 cells per ml into 24 Wells previously coated with polylysine D. The cultures are allowed to grow for 3 weeks, […] of the culture medium being renewed every 3 days. The test is carried out in the following way. Glutamate dissolved in 10 μl of MEM is added to the medium in order to obtain a final glutamate concentration of 5·10^-4 M. After exposure for 5 min, the medium is changed. For studying the antagonist derivatives of the glutamate, to the culture medium is added the compound to be test in 10 μl of MEM in order to obtain a final concentration of compound of 200, 20 or 0.2·10^-6 M. Five minutes later, glutamate is added to the medium and then the medium is replenished after exposure for 5 minutes. The protected and unprotected cultures are then examined and photographed at intervals between 30 min and 24 h.

[10] = test system: cortical cells; assay: Protection of cortical cells in vitro against acute glutamate damage; assay type: cell-based, rat; parameters: key: ++: severe damage; +: partial protection; -: no damage; conditions: 24 h after 5 min exposure to glutamate
Procedure: as §1, §2

[11] = test system: hippocampal cells; assay: Protection of hippocampal cells in vitro against acute glutamate damage; assay type: cell-based, rat; parameters: key: ++: severe damage; +: partial protection; -: no damage; conditions: 24 h after 5 min exposure to glutamate
Procedure: as §1, §2

[12] = Subcutaneous LD50 in the rat; conditions: in vivo, sc
[13] = Swiss mice, subcutaneous, dose at which 50% of the animals drop, read-out: ED50

T1 sequence (P33535 whole entry): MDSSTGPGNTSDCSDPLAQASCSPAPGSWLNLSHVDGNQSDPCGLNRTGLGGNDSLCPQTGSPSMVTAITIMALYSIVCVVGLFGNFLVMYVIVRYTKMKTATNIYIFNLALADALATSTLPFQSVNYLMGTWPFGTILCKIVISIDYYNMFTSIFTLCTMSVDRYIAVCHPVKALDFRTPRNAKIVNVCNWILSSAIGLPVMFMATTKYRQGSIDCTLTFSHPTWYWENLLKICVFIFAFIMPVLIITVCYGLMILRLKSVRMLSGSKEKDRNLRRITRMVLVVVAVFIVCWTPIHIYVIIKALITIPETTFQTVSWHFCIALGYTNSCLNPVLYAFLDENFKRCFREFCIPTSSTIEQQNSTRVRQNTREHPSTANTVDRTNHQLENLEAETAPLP

C[C@@H]1CCCC[C@]1(c1cccs1)N1CCCCC1 (relative stereo) [compound 9, c-methyl-2-r-(piperidino-1)-1 (thienyl-2)-1 cyclohexane]
IC50 [1]: 12 µM
IC50 ([2]; rat brain homogenate, read-out: ^3 HDHM IC50): 5 µM
neuron survival, comparison in words ([3]; compound 9 at 5 μmole/liter, 2 months culturing): comparable result to that of TCP at 20 μmole/l and that of MK801 at 5 μmole/l; also recorded: effectiveness equal to that of the reference compound MK801
number of neurons which survived after 2 months culturing [3]: more than 500 neurons/mm^2
cerebral aging experiment repeated in place of TCP [4]: equivalent results were obtained
ED50 [5, 13]: 3.5 mg/kg
IC50 [6]: 7.9 µM
^3 HDA/^3 H-TCP [6]: 415

O[C@H]1CCCC[C@]1(c1ccccc1)N1CCCCC1 (relative stereo) [compound 11, t-hydroxy-2 phenyl-1-r-(piperidino-1)-1 cyclohexane]
IC50 [1]: 125 µM
^3 HQNB/^3 HTCP [1]: 106.8
ED50 [5, 13]: 17 mg/kg
IC50 [7]: 1.17 µM

C1=CCN(C2(c3cccs3)CCCCC2)CC1 [Compound No. 2, ((tetrahydro-1,2,5,6pyridino)-1)-1 (thienyl-2)-1 cyclohexane]
IC50 [1]: 25 µM
^3 HQNB/^3 HTCP [1]: 961
IC50 [8]: 0.026 µM
protection of the cultures against glutamate ([9]; 0.2 μmole, 24 h after 5 min exposure to glutamate): no protection
protection of the cultures against glutamate ([9]; 2 μmole, 24 h after 5 min exposure to glutamate): only a limited protection
damage of the cultures by glutamate ([9]; 20 μmole, 24 h after 5 min exposure to glutamate): only very slightly damaged
appearance of hippocampal and cortical cell cultures ([9]; after 24 h, glutamate exposure): appear healthy in the same way as the control cells
acute swelling ([9]; glutamate exposure): less intense
necrosis ([9]; glutamate exposure): completely blocked
ED50 [5, 13]: 4 mg/kg
Treatment of cortical cells, damage ([10]; 0.2 μM): ++
Treatment of cortical cells, damage ([10]; 2 μM): +
Treatment of cortical cells, damage ([10]; 20 μM): -
Treatment of cortical cells, damage ([10]; 200 μM): -
IC50 [6]: 4.7 µM
IC50 [7]: 0.017 µM
Treatment of hippocampal cells, damage ([11]; 0.2 μM): ++
Treatment of hippocampal cells, damage ([11]; 2 μM): +
Treatment of hippocampal cells, damage ([11]; 20 μM): -
Treatment of hippocampal cells, damage ([11]; 200 μM): -

C[C@]12N[C@H](Cc3ccccc31)c1ccccc12 [MK801, (+)-methyl-5-dihydro-10,11(5H)dibenzo(A,D) cyclohepteneimine-5,10, reference compound]
number of neurons which survived after 2 months culturing [3]: more than 500 neurons/mm^2

c1ccc(C2(N3CCCCC3)CCCCC2)cc1 [PCP, 1-(1-phenylcyclohexyl)-piperidine, reference compound]
IC50 [1]: 30 µM
^3 HQNB/^3 HTCP [1]: 150
IC50 [8]: 0.2 µM
IC50 [2]: 26 µM
^3 HDHM/^3 HTCP ([2]; ratio of IC50): 130
ED50 [5]: 4 mg/kg
IC50 [6]: 0.5 µM
^3 HDA/^3 H-TCP [6]: 2.5
IC50 [7]: 0.25 µM

CC1CCN(C2(c3ccccc3)CCCCC2)CC1 [compound 1, ((methyl-4 piperidino)-1)-1 phenyl-1 cyclohexane]
ED50 [5, 13]: 20 mg/kg
IC50 [6]: 5 µM
^3 HDA/^3 H-TCP [6]: 125
IC50 [7]: 0.4 µM

OCC1CCCN(C2(c3cccs3)CCCCC2)C1 (stereo not shown) [compound 3, [(hydroxymethyl-3piperidino)-1]-1 (thienyl-2)-1 cyclohexane]
IC50 [1]: 90 µM
^3 HQNB/^3 HTCP [1]: 128
LD50 [12]: > 60 mg/kg
ED50 [5, 13]: 0.68 mg/kg
IC50 [7]: 0.7 µM

C[C@H]1CC[C@@](c2cccs2)(N2CCCC(CO)C2)CC1 (stereo partly shown) [compound 5, r-(hydroxymethyl-3-piperidino)-1-c-methyl-4 (thienyl-2)-1 cyclohexane]
IC50 [1]: 110 µM
^3 HQNB/^3 HTCP [1]: 289
ED50 [5, 13]: 8 mg/kg
IC50 [7]: 0.38 µM

CC(=O)OCC1CCCN(C2(c3ccccc3)CCCCC2)C1 (stereo not shown) [compound 6, acetate of ((hydroxymethyl-3-piperidino)-1)-1 phenyl-1 cyclohexane]
IC50 [1]: 140 µM
^3 HQNB/^3 HTCP [1]: 127
IC50 [7]: 1.1 µM

C[C@H]1CC[C@@](c2cccc(F)c2)(N2CCCC(CO)C2)CC1 (stereo partly shown) [compound 7, ((fluoro-3 phenyl)-1)-r-((hydroxymethyl-3 piperidino)-1)-1-c-methyl-4 cyclohexane]
IC50 [1]: 760 µM
^3 HQNB/^3 HTCP [1]: 168
IC50 [7]: 4.5 µM

ClCC1CCCN(C2(c3cccs3)CCCCC2)C1 (stereo not shown) [compound 8, [(chloromethyl-3 piperidino)-1]-1 (thienyl-2)-1 cyclohexane]
IC50 [1]: 870 µM
^3 HQNB/^3 HTCP [1]: 1553
ED50 [5, 13]: 150 mg/kg
rotary bar activity, in words ([5]; Swiss mice, subcutaneous): low activity compared with the other compounds
IC50 [7]: 0.56 µM

C[C@H]1CC[C@](c2cccs2)(N2CCCCC2)CC1 [compound 10]
IC50 [1]: 29.3 µM
^3 HQNB/^3 HTCP [1]: 862
IC50 [8]: 0.034 µM
ED50 [5, 13]: 19 mg/kg
IC50 [6]: 3.6 µM
^3 HDA/^3 H-TCP [6]: 105
IC50 [7]: 0.14 µM
